Results: paper PMC6213047, “Design of Antibacterial Agents: Alkyl Dihydroxybenzoates against Xanthomonas citri subsp. citri” (International Journal of Molecular Sciences, 2018)
Like-named read-outs stand apart in the source and are kept apart here.

How the values were obtained:
[1] = system: MRC-5 (human lung fibroblast cell line); assay: Cytotoxicity MTT assay, MRC-5; assay type: cell-based
Description: (§1) This test is based on the reduction of 3-(4,5-dimethyl-2-thiazolyl)-2,5-diphenyl-2-tetrazole bromide by viable cells, with formation of violet insoluble formazan crystals. Five cell lines were used in order to evaluate the cytotoxic effect of the compounds as a whole.
(§2) The cytotoxicity of compounds 4, 16, 28 and copper oxychloride was determined by MTT assay. The cell lines used were HaCaT (human keratinocyte cell line—CLS 300493), Huh-7.5 (human hepatoma cell line—ATCC® PTA-8561), MRC-5 (human lung fibroblast cell line—ATCC CCL-171), VERO (monkey kidney epithelial cell line—ATCC® CCL81) and ACHN (human renal adenocarcinoma cell line—ATCC® CRL1611). The cells were cultured in appropriate medium recommended by the American Type Culture Collection.
(§3) The assay was performed with the concentration of 10^4 cells for both cell lines, distributed in 96-well plates and incubated at 37 °C in a 5% CO2 controlled atmosphere oven for 24 h. After the incubation period, the cells were treated with the compounds with a range of 1.56–200 μmol L^−1 and incubated for 24 h. The supernatant was removed, then 100 μL of 3-(4,5-dimethyl-2-thiazolyl)-2,5-diphenyl-2H-tetrazolium (MTT) salt at 1 mg mL^−1 diluted in DMEM medium (Gibco Life Technologies, Gaithersburg, MD, USA) was added and incubated for 30 min. Subsequently, the MTT was removed, then 100 μL of DMSO under agitation for 5 min at 60 rpm was added. The plates were read at 570 nm in a FLUOstar Omega/BMG LABTECH plate reader, Offenburg, BW, DE. We carried out the experiments in triplicate and three independent events for statistical analysis (GraphPad Software, San Diego, CA, USA). The MTT assay is based on the tetrazolium salt (yellow-colored) reduction to formazan (purple-colored) by metabolically active cells.

[2] = system: ACHN (human renal adenocarcinoma cell line); assay: Cytotoxicity MTT assay, ACHN; assay type: cell-based
Description: as §1, §2, §3

[3] = Homo sapiens, MRC5, 24 h, read-out: IC50 MRC-5, MTT, 24 h treatment
[4] = MTT, 24 h treatment, read-out: IC50 MRC-5
[5] = Homo sapiens, ACHN, 24 h, read-out: IC50 ACHN, MTT, 24 h treatment
[6] = MTT, 24 h treatment, read-out: IC50 ACHN

| SMILES | IC50 [1, 3] [µM] | IC50 [1, 4] [µM] | IC50 [2, 5] [µM] | IC50 [2, 6] [µM] |
| --- | --- | --- | --- | --- |
| CCCCCCCOC(=O)c1ccc(O)cc1O [Compound 4] | > 100 | 127 ± 4.59 | > 100 | 153 ± 7.07 |
| CCCCCCCOC(=O)c1cc(O)ccc1O [Compound 16] | > 100 | 145 ± 6.29 | > 100 | 140 ± 7.56 |
| CCCCCCCOC(=O)c1ccc(O)c(O)c1 [Compound 28] | > 100 | 129 ± 2.12 | > 100 | 114 ± 9.97 |
